Assay results from publication PMC11191095, “QSAR Reveals Decreased Lipophilicity of Polar Residues Determines the Selectivity of Antimicrobial Peptide Activity” (ACS Omega, 2024).
Where a SMILES comes first, the peptide text is derived from it.

Legend:
P. aeruginosa NCTC 13437 = assay: microbe, parasite or virus in culture; type: cell-based, Pseudomonas aeruginosa; settings: P. aeruginosa NCTC 13437 (R); shown in µM
Method in brief: (§1)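 Peptides 128→2 μg/mL, 2-fold series; inoculum ~5 × 10^5 CFU/mL from overnight culture (OD600 0.01, mixed 1:1). MHB non-cation-adjusted for bacteria, RPMI 1640 + 2% glucose for fungi. 37 °C, 20 h, OD600. MIC50/MIC90 at 50%/90% inhibition; n ≥ 3.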

P. aeruginosa PAO1 = assay: microbe, parasite or virus in culture; type: cell-based, Pseudomonas aeruginosa; settings: P. aeruginosa PAO1 (S)
Method in brief: as §1

S. aureus (MRSA) USA300 = assay: microbe, parasite or virus in culture; type: cell-based, Staphylococcus aureus; settings: S. aureus (MRSA) USA300 (R); shown in µM
Method in brief: as §1

[1] = tested on: S. aureus (MRSA) NCTC 13616; assay: microbe, parasite or virus in culture; type: cell-based, Staphylococcus aureus; settings: S. aureus (MRSA) NCTC 13616 (R); shown in µM
Method in brief: as §1

[2] = tested on: S. aureus (MSSA) ATCC 9144; assay: microbe, parasite or virus in culture; type: cell-based, Staphylococcus aureus; settings: S. aureus (MSSA) ATCC 9144 (S); shown in µM
Method in brief: as §1

S. aureus (MRSA) 1199B = assay: microbe, parasite or virus in culture; type: cell-based, Staphylococcus aureus; settings: S. aureus (MRSA) 1199B (R); shown in µM
Method in brief: as §1

E. coli LEC001 = assay: microbe, parasite or virus in culture; type: cell-based, Escherichia coli; settings: E. coli LEC001 (R); shown in µM
Method in brief: as §1

E. coli NCTC 12923 = assay: microbe, parasite or virus in culture; type: cell-based, Escherichia coli; settings: E. coli NCTC 12923 (S); shown in µM
Method in brief: as §1

K. pneumoniae NCTC 13368 = assay: microbe, parasite or virus in culture; type: cell-based, Klebsiella pneumoniae; settings: K. pneumoniae NCTC 13368 (R); shown in µM
Method in brief: as §1

K. pneumoniae M6 = assay: microbe, parasite or virus in culture; type: cell-based, Klebsiella pneumoniae; settings: K. pneumoniae M6 (S); shown in µM
Method in brief: as §1

C. auris TDG 1912 = assay: microbe, parasite or virus in culture; type: cell-based, Candida auris; settings: C. auris TDG 1912
Method in brief: as §1

human erythrocytes = assay: In vitro hemolytic activity; type: cell-based; settings: human erythrocytes in PBS, 1 h, 37 °C, OD550, from dose response curves
Method in brief: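 Serial peptide dilutions in PBS mixed 1:1 with fresh erythrocytes, 1 h at 37 °C; supernatant OD550 measured after centrifugation. Hemolysis normalized to 0.1% Triton X-100 (full lysis) and PBS (none); HC10 and HC50 taken from dose–response curves.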

C. albicans NCPF 3281 = assay: microbe, parasite or virus in culture; type: cell-based; settings: C. albicans NCPF 3281; shown in µM
Method in brief: as §1

C. tropicalis NCPF 8760 = assay: microbe, parasite or virus in culture; type: cell-based; settings: C. tropicalis NCPF 8760; shown in µM
Method in brief: as §1

C. krusei NCPF 3876 = assay: microbe, parasite or virus in culture; type: cell-based; settings: C. krusei NCPF 3876; shown in µM
Method in brief: as §1

[3] = tested on: C. parapsilosis NCPF 3209; assay: microbe, parasite or virus in culture; type: cell-based; settings: C. parapsilosis NCPF 3209; shown in µM
Method in brief: as §1

C. glabrata NCPF 8018 = assay: microbe, parasite or virus in culture; type: cell-based; settings: C. glabrata NCPF 8018
Method in brief: as §1

HaCat cell line = assay: In vitro HaCat cytotoxicity (MTT); type: cell-based, human; settings: 21 h exposure, OD570, relative to untreated control
Description: The HaCat cell line (Cellonex, South Africa) was cultured in Dulbecco’s Modified Eagle Medium (DMEM) supplemented with 10% heat-inactivated fetal calf serum (FCS) and 1% antibiotic-antimycotic (Abs) and maintained at 5–10% CO2, 37 °C, 95% humidity. For cytotoxicity screening, 5.56 × 10^4 cells/mL were plated in a 96-well plate. After 24 h incubation, the cells are initially exposed to each peptide at a concentration of 256 μg/mL or 0.1% Triton-X-100 as the control for 21 h. If cytotoxicity was observed, at a level of significance of p < 0.0001 compared with the untreated control after 21 h, a dose-response assay was undertaken. Cell viability was determined by adding 10% 3-(4,5-dimethyl-2-thiazolyl)-2,5-diphenyl-2H-tetrazolium bromide (MTT) (1 mg/mL), to each well and after a further 3 h incubation the media was discarded, and the formazan crystals dissolved by adding 25% DMSO in ethanol. The absorbance was measured at OD570 by using the FLUOstar Omega multidetection microplate reader (BMG Labtech). Percentage cell viability was calculated relative to the untreated control. The LC50 was defined as the concentration of AMP treatment that results in 50% lethality of HaCat cells and was determined from the dose-response curves.

A. baumannii AYE = assay: microbe, parasite or virus in culture; type: cell-based, Acinetobacter baumannii; settings: A. baumannii AYE (R); shown in µM
Method in brief: as §1

A. baumannii ATCC 17978 = assay: microbe, parasite or virus in culture; type: cell-based, Acinetobacter baumannii; settings: A. baumannii ATCC 17978 (S); shown in µM
Method in brief: as §1

[4] = MHB, 37 °C, 20 h, OD600, min. three biological repeats
[5] = 50% growth inhibition, RPMI 1640 + 2% glucose, 37 °C, 20 h, OD600
[6] = 90% growth inhibition, RPMI 1640 + 2% glucose, 37 °C, 20 h, OD600

SMILES	Modal MIC (P. aeruginosa NCTC 13437)	Modal MIC (P. aeruginosa PAO1; shown in µM)	Modal MIC (S. aureus (MRSA) USA300)	Modal MIC [1]	Modal MIC [2]	Modal MIC (S. aureus (MRSA) 1199B)	Modal MIC (E. coli LEC001)	Modal MIC (E. coli NCTC 12923)	Modal MIC (K. pneumoniae NCTC 13368)	Modal MIC (K. pneumoniae M6)	Modal MIC50 (C. auris TDG 1912; [5])	Modal MIC90 (C. auris TDG 1912; [6])	Modal MIC50 (C. auris TDG 1912; shown in µM)	Modal MIC90 (C. auris TDG 1912; shown in µM)	HC10 (concentration causing 10% hemolysis) (human erythrocytes)	Modal MIC50 (C. albicans NCPF 3281)	Modal MIC90 (C. albicans NCPF 3281)	Modal MIC50 (C. tropicalis NCPF 8760)	Modal MIC90 (C. tropicalis NCPF 8760)	Modal MIC50 (C. krusei NCPF 3876)	further results
CC[C@H](C)[C@H](N)C(=O)N[C@@H](CC(C)C)C(=O)N[C@@H](CCCCN)C(=O)N[C@@H](CCCCN)C(=O)N[C@H](C(=O)N[C@@H](Cc1c[nH]c2ccccc12)C(=O)N[C@@H](CCC(=O)O)C(=O)NCC(=O)N[C@H](C(=O)N[C@@H](CCCCN)C(=O)N[C@@H](CO)C(=O)N[C@@H](CC(C)C)C(=O)N[C@@H](Cc1ccccc1)C(N)=O)[C@@H](C)CC)[C@@H](C)CC [K3-IsCTa] (H-ILKKIWEGIKSLF-NH2)	39.8 µM	> 79.5 µM	9.9 µM	5 µM	5 µM	5 µM	5 µM	5 µM	9.9 µM	9.9 µM	> 128 µg/mL	> 128 µg/mL	> 79.5 µM	> 79.5 µM	84 µg/mL	19.9 µM	39.8 µM	2.5 µM	5 µM	9.9 µM	Modal MIC (P. aeruginosa PAO1; [4]): > 128 µg/mL; Modal MIC90 (C. krusei NCPF 3876): 19.9 µM; Modal MIC50 [3]: 39.8 µM; Modal MIC90 [3]: 39.8 µM; Modal MIC50 (C. glabrata NCPF 8018; shown in µM): 39.8 µM; Modal MIC90 (C. glabrata NCPF 8018; shown in µM): 39.8 µM; % HaCat cell death at initial screening (256μg/mL) ± SD (HaCat cell line): 104.1 ± 11.9%; Modal MIC (A. baumannii AYE): 5 µM; Modal MIC (A. baumannii ATCC 17978): 2.5 µM
CC[C@H](C)[C@H](NC(=O)[C@H](C)NC(=O)[C@H](CCCCN)NC(=O)[C@@H]1CCCN1C(=O)[C@@H](NC(=O)[C@H](CC(C)C)NC(=O)[C@H](CO)NC(=O)[C@H](Cc1ccccc1)NC(=O)[C@H](CC(C)C)NC(=O)[C@@H](N)Cc1ccccc1)[C@@H](C)CC)C(=O)NCC(=O)NCC(=O)N[C@@H](CC(C)C)C(=O)N[C@H](C(=O)N[C@@H](CO)C(=O)N[C@@H](C)C(=O)N[C@@H](Cc1ccccc1)C(=O)N[C@@H](CCCCN)C(N)=O)[C@@H](C)CC [AamAP-S1a]	64.8 µM	> 64.8 µM	4.1 µM	4.1 µM	2 µM	2 µM	8.1 µM	8.1 µM	32.4 µM	32.4 µM	> 128 µg/mL	> 128 µg/mL	> 64.8 µM	> 64.8 µM	45 µg/mL	64.8 µM	64.8 µM	8.1 µM	8.1 µM	32.4 µM	Modal MIC (P. aeruginosa PAO1; [4]): > 128 µg/mL; HC50 (concentration causing 50% hemolysis) (human erythrocytes): 112 µg/mL; HC50 (concentration causing 50% hemolysis) (human erythrocytes; listed as AamAP1-S1a): lower than 256 µg/mL; Modal MIC90 (C. krusei NCPF 3876): 32.4 µM; Modal MIC50 [3]: 64.8 µM; Modal MIC90 [3]: 64.8 µM; Modal MIC50 (C. glabrata NCPF 8018; 50% growth inhibition, RPMI 1640 + 2% glucose, 37 °C, 20 h): > 128 µg/mL; Modal MIC90 (C. glabrata NCPF 8018; 90% growth inhibition, RPMI 1640 + 2% glucose, 37 °C, 20 h): > 128 µg/mL; Modal MIC50 (C. glabrata NCPF 8018; shown in µM): > 64.8 µM; Modal MIC90 (C. glabrata NCPF 8018; shown in µM): > 64.8 µM; % HaCat cell death at initial screening (256μg/mL) ± SD (HaCat cell line): 97.6 ±12.6%; Modal MIC (A. baumannii AYE): 4.1 µM; Modal MIC (A. baumannii ATCC 17978): 4.1 µM
CC[C@H](C)[C@H](NC(=O)[C@H](CCCCN)NC(=O)[C@H](CCC(=O)O)NC(=O)[C@H](Cc1c[nH]c2ccccc12)NC(=O)[C@H](Cc1ccccc1)NC(=O)[C@H](CCCCN)NC(=O)CNC(=O)[C@H](CC(C)C)NC(=O)[C@H](C)N)C(=O)N[C@@H](CCCCN)C(=O)N[C@@H](CO)C(=O)N[C@@H](CC(C)C)C(=O)N[C@@H](Cc1ccccc1)C(N)=O [A1F5K8-IsCTa] (H-ALGKFWEKIKSLF-NH2)	39.9 µM	> 79.9 µM	10 µM	10 µM	2.5 µM	5 µM	5 µM	5 µM	10 µM	10 µM	> 128 µg/mL	> 128 µg/mL	> 79.9 µM	> 79.9 µM	102 µg/mL	39.9 µM	39.9 µM	5 µM	5 µM	19.9 µM	Modal MIC (P. aeruginosa PAO1; [4]): > 128 µg/mL; Modal MIC90 (C. krusei NCPF 3876): 19.9 µM; Modal MIC50 [3]: 39.8 µM; Modal MIC90 [3]: 39.8 µM; Modal MIC50 (C. glabrata NCPF 8018; shown in µM): 39.9 µM; Modal MIC90 (C. glabrata NCPF 8018; shown in µM): 79.9 µM; % HaCat cell death at initial screening (256μg/mL) ± SD (HaCat cell line): 83.6 ±9.2%; Modal MIC (A. baumannii AYE): 5 µM; Modal MIC (A. baumannii ATCC 17978): 2.5 µM
CC[C@H](C)[C@H](NC(=O)[C@H](C)NC(=O)[C@H](CCCCN)NC(=O)[C@@H]1CCCN1C(=O)[C@@H](NC(=O)[C@H](CC(C)C)NC(=O)[C@H](CCCCN)NC(=O)[C@H](Cc1ccccc1)NC(=O)[C@H](CC(C)C)NC(=O)[C@@H](N)Cc1ccccc1)[C@@H](C)CC)C(=O)N[C@@H](CCCCN)C(=O)N[C@@H](CCCCN)C(=O)N[C@@H](CC(C)C)C(=O)N[C@H](C(=O)N[C@@H](CO)C(=O)N[C@@H](CCCCN)C(=O)N[C@@H](Cc1ccccc1)C(=O)N[C@@H](CCCCN)C(N)=O)[C@@H](C)CC [AamAP1-Lysa] (H-FLFKLIPKAIKKLISKFK-NH2)	7.2 µM	7.2 µM	1.8 µM	0.9 µM	1.8 µM	1.8 µM	3.6 µM	1.8 µM	3.6 µM	3.6 µM	> 128 µg/mL	> 128 µg/mL	> 57.8 µM	> 57.8 µM	53 µg/mL	14.4 µM	28.8 µM	0.9 µM	0.9 µM	7.2 µM	HC50 (concentration causing 50% hemolysis) (human erythrocytes): 256 µg/mL; Modal MIC90 (C. krusei NCPF 3876): 7.2 µM; Modal MIC50 [3]: 14.4 µM; Modal MIC90 [3]: 14.4 µM; Modal MIC50 (C. glabrata NCPF 8018; shown in µM): 57.8 µM; Modal MIC90 (C. glabrata NCPF 8018; shown in µM): 57.8 µM; % HaCat cell death at initial screening (256μg/mL) ± SD (HaCat cell line): 94.8 ± 8.2%; Modal MIC (A. baumannii AYE): 1.8 µM; Modal MIC (A. baumannii ATCC 17978): 0.9 µM
